Results from ChEMBL document CHEMBL1201862, “PubChem BioAssay data set” (2004).
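Dose response: 5 concentrations. Exposure: 48 h. Format: 96-well plates. Endpoint: linear interpolation; highest concentration if not reached. Abbreviation: GI50, concentration required for 50% inhibition of growth.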 The source made the active and inactive calls. Rule as the data show it: active = GI50 up to about 1.1 µM and inactive = higher.

Experiments:
Assay in all cases: inhibition of tumour cell growth, NCI panel, 48 h
786-0 = system: 786-0
NCI-H460 = system: NCI-H460
HCT-15 = system: HCT-15
UACC-257 = system: UACC-257
HL-60 = system: HL-60
SK-OV-3 = system: SK-OV-3
CAKI-1 = system: CAKI-1
A549 = system: A549
MDA-MB-231 = system: MDA-MB-231
NCI-H23 = system: NCI-H23
HCC 2998 = system: HCC 2998
U-251 = system: U-251
SNB-75 = system: SNB-75
MDA-MB-435 = system: MDA-MB-435
OVCAR-8 = system: OVCAR-8
SK-MEL-5 = system: SK-MEL-5
NCI-H226 = system: NCI-H226
MOLT-4 = system: MOLT-4
UACC-62 = system: UACC-62
RPMI-8226 = system: RPMI-8226

SMILES	GI50 (786-0)	GI50 (NCI-H460)	GI50 (HCT-15) [µM]	GI50 (UACC-257)	GI50 (HL-60)	GI50 (SK-OV-3)	GI50 (CAKI-1)	GI50 (A549)	GI50 (MDA-MB-231)	GI50 (NCI-H23)	GI50 (HCC 2998)	GI50 (U-251)	GI50 (SNB-75)	GI50 (MDA-MB-435)	GI50 (OVCAR-8)	GI50 (SK-MEL-5)	GI50 (NCI-H226)	GI50 (MOLT-4)	GI50 (UACC-62)	GI50 (RPMI-8226)
CN(Cc1cnc2c(n1)C(N)=NN(N)N2)c1ccc(C(=O)NC(CCP(=O)(O)O)C(=O)O)cc1 (centres undefined)	1.86 µM (inactive)	1.87 µM (inactive)	6.14	> 100 µM (inactive)	0.252 µM (active)	> 100 µM (inactive)	> 52.8 µM (inactive)	2.43 µM (inactive)	> 100 µM (inactive)	14.9 µM (inactive)	15.3 µM (inactive)	> 91 µM (inactive)	7.01 µM (inactive)	3.95 µM (inactive)	> 36.2 µM (inactive)	5.35 µM (inactive)	> 35.1 µM (inactive)	5.42 µM (inactive)	1.78 µM (inactive)	–
CC(=O)Nc1ncc2c(n1)-c1ccccc1OC2	65.9 µM (inactive)	> 100 µM (inactive)	> 100	> 100 µM (inactive)	> 100 µM (inactive)	> 100 µM (inactive)	> 100 µM (inactive)	> 100 µM (inactive)	> 100 µM (inactive)	> 100 µM (inactive)	–	> 100 µM (inactive)	65.2 µM (inactive)	> 100 µM (inactive)	> 100 µM (inactive)	> 100 µM (inactive)	> 100 µM (inactive)	> 100 µM (inactive)	> 100 µM (inactive)	> 100 µM (inactive)
CCOC(CN(C)C(=O)OCC(Cl)(Cl)Cl)OCC	> 100 µM (inactive)	61.5 µM (inactive)	77.8	33.4 µM (inactive)	21.6 µM (inactive)	> 100 µM (inactive)	34.1 µM (inactive)	> 100 µM (inactive)	25.5 µM (inactive)	59.7 µM (inactive)	> 100 µM (inactive)	74.8 µM (inactive)	83.4 µM (inactive)	> 100 µM (inactive)	> 100 µM (inactive)	33.7 µM (inactive)	54.6 µM (inactive)	29.3 µM (inactive)	> 100 µM (inactive)	–
CN(Cc1cnc2nc(N)nc(N)c2n1)c1ccc(C(=O)NC(CCC(=O)NC(P(=O)(O)O)P(=O)(O)O)C(=O)O)cc1 (centres undefined)	7.31 µM (inactive)	9.62 µM (inactive)	22.9	99.1 µM (inactive)	7.18 µM (inactive)	–	12.4 µM (inactive)	15.3 µM (inactive)	> 100 µM (inactive)	50.8 µM (inactive)	–	6.43 µM (inactive)	> 100 µM (inactive)	30 µM (inactive)	4.33 µM (inactive)	45.5 µM (inactive)	> 100 µM (inactive)	52.8 µM (inactive)	> 100 µM (inactive)	52.4 µM (inactive)
ClC(Cl)(Cl)C1CCOC1n1nnc2ccccc21 (centres undefined)	> 100 µM (inactive)	–	–	> 100 µM (inactive)	11.9 µM (inactive)	> 100 µM (inactive)	> 100 µM (inactive)	63 µM (inactive)	> 100 µM (inactive)	24.3 µM (inactive)	> 100 µM (inactive)	90.4 µM (inactive)	1.2 µM (inactive)	> 100 µM (inactive)	> 100 µM (inactive)	45.2 µM (inactive)	> 100 µM (inactive)	21.9 µM (inactive)	> 100 µM (inactive)	–
NCCSC(c1ccccc1)c1ccccc1	17.5 µM (inactive)	15.1 µM (inactive)	33.2	16.3 µM (inactive)	0.314 µM (active)	22.5 µM (inactive)	24.9 µM (inactive)	39.3 µM (inactive)	18.6 µM (inactive)	37.2 µM (inactive)	–	18.2 µM (inactive)	24.5 µM (inactive)	19.1 µM (inactive)	20.6 µM (inactive)	16.7 µM (inactive)	31.2 µM (inactive)	15.7 µM (inactive)	17 µM (inactive)	16 µM (inactive)
CC1CC[C@@]2(OC1)OC1CC3C4CCC5C[C@@H](OC6OC(CO)C(OC7OC(CO)C(O)C(OC8OC(CO)C(O)C(OC9OC(CO)C(O)C(O)C9O)C8O)C7OC7OC(CO)C(O)C(O)C7O)C(O)C6O)[C@H](O)C[C@]5(C)C4CC[C@]3(C)C1[C@@H]2C (some centres undefined)	> 80.5 µM (inactive)	> 80.5 µM (inactive)	> 80.5	> 80.5 µM (inactive)	> 80.5 µM (inactive)	> 80.5 µM (inactive)	> 80.5 µM (inactive)	> 80.5 µM (inactive)	> 80.5 µM (inactive)	> 80.5 µM (inactive)	> 80.5 µM (inactive)	> 80.5 µM (inactive)	> 80.5 µM (inactive)	> 80.5 µM (inactive)	> 80.5 µM (inactive)	> 80.5 µM (inactive)	> 80.5 µM (inactive)	–	> 80.5 µM (inactive)	–
CCOC(=O)CC1c2ccc(O)cc2OC(=O)C1c1ccc([N+](=O)[O-])cc1 (centres undefined)	41.3 µM (inactive)	31.3 µM (inactive)	30.4	28.8 µM (inactive)	34.1 µM (inactive)	33.3 µM (inactive)	43 µM (inactive)	27.5 µM (inactive)	18.5 µM (inactive)	27.7 µM (inactive)	20.3 µM (inactive)	35.8 µM (inactive)	23.9 µM (inactive)	25 µM (inactive)	29 µM (inactive)	15.4 µM (inactive)	14.2 µM (inactive)	22.8 µM (inactive)	37.2 µM (inactive)	–
Nc1cc([N+](=O)[O-])ccc1C(=O)N1CCC[C@H]1CO	> 100 µM (inactive)	> 100 µM (inactive)	> 100	> 100 µM (inactive)	> 100 µM (inactive)	> 100 µM (inactive)	> 100 µM (inactive)	> 100 µM (inactive)	> 100 µM (inactive)	> 100 µM (inactive)	–	> 100 µM (inactive)	> 100 µM (inactive)	> 100 µM (inactive)	> 100 µM (inactive)	–	> 100 µM (inactive)	> 100 µM (inactive)	> 100 µM (inactive)	> 100 µM (inactive)
OC1(C2(c3ccc(Cl)cc3)CCCC2)c2ccccc2C2=NCCN21 (centres undefined)	14.3 µM (inactive)	14.3 µM (inactive)	15.6	14.2 µM (inactive)	14.4 µM (inactive)	18.8 µM (inactive)	14.8 µM (inactive)	15.8 µM (inactive)	14.8 µM (inactive)	18.7 µM (inactive)	2.4 µM (inactive)	14.2 µM (inactive)	3.83 µM (inactive)	12.6 µM (inactive)	17.3 µM (inactive)	12.4 µM (inactive)	17.1 µM (inactive)	13.3 µM (inactive)	16.1 µM (inactive)	–
COC(=O)c1sc2c(Cl)c(Cl)sc2c1Cl	43.8 µM (inactive)	> 100 µM (inactive)	> 100	> 100 µM (inactive)	> 100 µM (inactive)	> 100 µM (inactive)	> 100 µM (inactive)	> 100 µM (inactive)	> 100 µM (inactive)	> 100 µM (inactive)	> 100 µM (inactive)	97.5 µM (inactive)	> 100 µM (inactive)	> 100 µM (inactive)	> 100 µM (inactive)	> 100 µM (inactive)	> 100 µM (inactive)	> 100 µM (inactive)	> 100 µM (inactive)	–
O=[N+]([O-])c1cccc(CSc2nc(O)c3nc[nH]c3n2)c1	> 100 µM (inactive)	> 100 µM (inactive)	> 100	> 100 µM (inactive)	> 100 µM (inactive)	> 100 µM (inactive)	> 100 µM (inactive)	> 100 µM (inactive)	> 100 µM (inactive)	> 100 µM (inactive)	–	> 100 µM (inactive)	> 100 µM (inactive)	> 100 µM (inactive)	> 100 µM (inactive)	> 100 µM (inactive)	79.8 µM (inactive)	> 100 µM (inactive)	50.1 µM (inactive)	> 100 µM (inactive)
O=C1NC(O)c2ccccc2O1 (centres undefined)	> 100 µM (inactive)	> 100 µM (inactive)	> 100	> 100 µM (inactive)	> 100 µM (inactive)	> 100 µM (inactive)	> 100 µM (inactive)	> 100 µM (inactive)	> 100 µM (inactive)	> 100 µM (inactive)	> 100 µM (inactive)	> 100 µM (inactive)	> 100 µM (inactive)	> 100 µM (inactive)	> 100 µM (inactive)	> 100 µM (inactive)	> 100 µM (inactive)	> 100 µM (inactive)	> 100 µM (inactive)	–
Cc1c(/C=N/NC(=S)Nc2ccccc2Cl)c(=O)n(-c2ccccc2)n1C	19.9 µM (inactive)	25.4 µM (inactive)	8.53	34.2 µM (inactive)	22.4 µM (inactive)	31 µM (inactive)	19.7 µM (inactive)	27.6 µM (inactive)	14.9 µM (inactive)	–	–	30.3 µM (inactive)	25.9 µM (inactive)	> 100 µM (inactive)	27.7 µM (inactive)	32.7 µM (inactive)	68.5 µM (inactive)	20.5 µM (inactive)	31 µM (inactive)	48.9 µM (inactive)
Cc1ccc(C(=O)Cc2nc3ncccc3[nH]c2=O)cc1	22.5 µM (inactive)	45.4 µM (inactive)	41.2	40.6 µM (inactive)	> 100 µM (inactive)	23 µM (inactive)	65.5 µM (inactive)	12.8 µM (inactive)	24.9 µM (inactive)	9.29 µM (inactive)	51.5 µM (inactive)	22.5 µM (inactive)	–	18.7 µM (inactive)	23.6 µM (inactive)	40.8 µM (inactive)	24.9 µM (inactive)	70.3 µM (inactive)	49.8 µM (inactive)	59 µM (inactive)
